Molecular target: KCNQ2/KCNQ3 potassium channel (Homo sapiens, UniProt O43525+O43526)
Assay: KCNQ2/KCNQ3 potassium channel current, automated parallel patch clamp (PatchXpress 7000A)
Format: cell-based
Settings: channel expressed in mammalian cells, ambient temperature
Description: The objective of this study was to examine the in vitro effects of the Example compounds on the KCNQ2/KCNQ3 potassium channel current expressed in mammalian cells using the PatchXpress 7000A (Molecular Devices), an automatic parallel patch clamp system. The test compounds were evaluated at 30 μM with this concentration tested in 3 cells (n=3). The duration of exposure to the test compound concentration was 5 minutes. […] The results for a positive control, flupirtine (Table 2) confirm the sensitivity of the test system to detect KCNQ2/KCNQ3 current enhancement.
All experiments were performed at ambient temperature. Each cell acted as its own control.
A 30 μM concentration of test compound was applied via disposable polyethylene micropipette tips to naïve cells (n=2, where n=the number cells). Each solution exchange, performed in quadruplicate, consisted of aspiration and replacement of 45 of the total 50 μL volume of the extracellular well of the Sealchip16.
Vehicle was applied to naïve cells (n 2, where n=the number cells), for a 5 minute exposure interval. Each solution exchange, performed in quadruplicate, consisted of aspiration and replacement of 45 μL of the total 50 μL volume of the extracellular well of the Sealchip16. After vehicle application, the positive control was applied in the same manner, to verify sensitivity of the assay.
In preparation for a recording session, intracellular solution was loaded into the intracellular compartments of the Sealchip16 planar electrode. Cell suspension was pipetted into the extracellular compartments of the Sealchip16 planar electrode. After establishment of a whole-cell configuration, membrane currents were recorded using dual-channel patch clamp amplifiers in the PatchXpress®system. Before digitization, the current records were low-pass filtered at one-fifth of the sampling frequency.
Data acquisition and analyses were performed using the suite of pCLAMP programs (Axon Instruments, Union City, Calif.). Steady state was defined by the limiting constant rate of change with time (linear time dependence). The steady state before and after test article application was used to calculate the percentage of current inhibited at each concentration. Results obtained from different cell were averaged and presented as Mean±S.D.—see Tables 1 and 2.

[1] = 30 μM test compound, 5 minutes exposure

| SMILES | Mean % Enhancement of KCNQ2/KCNQ3 [1] [%] | Mean % Enhancement of KCNQ2/KCNQ3 (10 μM positive control, applied after vehicle) [%] |
| --- | --- | --- |
| O=C(Cc1cccc(Nc2c(Cl)cc(Cl)cc2Cl)c1)NCCO [Example 1, N-(2-Hydroxy-ethyl)-2-[3-(2,4,6-trichloro-phenylamino)-phenyl]-acetamide] | 168.2 | – |
| O=C(O)CNC(=O)Cc1cc(Nc2cc(Cl)cc(Cl)c2)ccc1F [Example 2, {2-[5-(3,5-Dichloro-phenylamino)-2-fluoro-phenyl]-acetylamino}-acetic acid] | 162.5 | – |
| O=C(Cc1ccc(Nc2c(Cl)cc(C(F)(F)F)cc2Cl)cc1)NCCO [Example 3, 2-[4-(2,6-Dichloro-4-trifluoromethyl-phenylamino)-phenyl]-N-(2-hydroxy-ethyl)-acetamide] | 115.8 | – |
| O=C(O)CNC(=O)Cc1ccc(Nc2cc(Cl)cc(Cl)c2)cc1 [Example 4, {2-[4-(3,5-Dichlorophenylamino)-phenyl]-acetylamino}-acetic acid] | 181.9 | – |
| CCOC(=O)Nc1ccc(NCc2ccc(F)cc2)nc1N [Flupirtine, reference compound] | – | 201.0 |

Source: US9464052B2, “Potassium ion channel modulators and uses thereof” (Ramot at Tel-Aviv University Ltd., priority 2008, dated 2016)
